{"source": "the SangsterLogP compilation", "data": [{"experiment": "method code SF, from DOI: 10.1021/jm00226a007, PMID: 817022", "details": "pH 7.4", "values": [{"smiles": "COc1cc(C(=O)NN)ccn1", "logD": -0.1}]}, {"experiment": "method code SF-AS, from DOI: 10.1021/jm00226a007, PMID: 817022", "details": "pH 7.4", "values": [{"smiles": "CC(=O)NCc1cc(C(=O)NN)ccn1", "logD": -1.58}, {"smiles": "CC(C)Cc1cc(C(=O)NN)ccn1", "logD": 1.02}, {"smiles": "CCCc1cc(C(=O)NN)ccn1", "logD": 0.63}, {"smiles": "NNC(=O)c1ccnc(Br)c1", "logD": 0.25}, {"smiles": "Cc1cc(C(=O)NN)ccn1", "logD": -0.37}, {"smiles": "NNC(=O)c1ccnc(F)c1", "logD": -0.11}, {"smiles": "CCc1cc(C(=O)NN)ccn1", "logD": 0.12}, {"smiles": "CCN(CC)c1cc(C(=O)NN)ccn1", "logD": 1.12}, {"smiles": "CC(=O)Nc1cc(C(=O)NN)ccn1", "logD": -1.25}, {"smiles": "NNC(=O)c1ccnc(I)c1", "logD": 0.52}, {"smiles": "NNC(=O)c1ccnc(N)c1", "logD": -0.98}, {"smiles": "NNC(=O)c1ccnc(-c2ccccc2)c1", "logD": 1.36}, {"smiles": "NNC(=O)c1ccnc(Cc2ccccc2)c1", "logD": 1.01}, {"smiles": "NNC(=O)c1ccnc(Cl)c1", "logD": 0.11}, {"smiles": "CCOc1cc(C(=O)NN)ccn1", "logD": 0.48}, {"smiles": "NNC(=O)c1ccnc([N+](=O)[O-])c1", "logD": -0.76}]}]}
